Results taken from patent US20260272934A1 (The United States of America, as represented by the …, priority 2023, published 2026).
pKi: −log10 of the molar value.

Assays:
5-HT1D = 5-HT1D (Homo sapiens, UniProt P28221); assay: Off-target primary and secondary screen; assay type: binding; conditions: 10 mM sample
5-HT2A = 5-HT2A (Homo sapiens, UniProt P28223); assay: Off-target primary and secondary screen; assay type: binding; conditions: 10 mM sample
DAT = DAT (Homo sapiens, UniProt Q01959); assay: Off-target primary and secondary screen; assay type: binding; conditions: 10 mM sample
[1] = system: multiple myeloma-derived L363 cells; assay: Colorimetric MTS cell viability assay; assay type: cell-based; conditions: N.S. = Not significant
Source text: • *Data from Park, J. E., et al {Park, 2023 #3387}. **Data from Alverez C. N., et al {Alverez, 2020 #3186}. N. S., Not significant; N. D., Not determined. ^a IC50 values determined from at least three independent experiments except as noted in parentheses. b A colorimetric MTS cell viability assay carried out using multiple myeloma-derived L363 cells.

5-HT7A = 5-HT7A (Homo sapiens, UniProt P34969); assay: Off-target primary and secondary screen; assay type: binding; conditions: 10 mM sample
5-HT1B = 5-HT1B (Homo sapiens, UniProt P28222); assay: Off-target primary and secondary screen; assay type: binding; conditions: 10 mM sample
[2] = Conversion of Allopole to Allopole-A under various buffer conditions (mass spectroscopy); assay type: physicochemical; conditions: 100 uM Allopole incubated, RT, 1 h
Description: This Example illustrates the conversion of Allopole to Allopole-A under various buffer conditions, RT, 1 h (JE), as set forth in Table 4
Samples were prepared by incubating Allopole in the indicated buffer conditions without or with 5 mM GSH for 1 h, at RT.

5-HT3 = 5-HT3 (Homo sapiens, UniProt P46098); assay: Off-target primary and secondary screen; assay type: binding; conditions: 10 mM sample
Sigma 2 = Sigma 2 (Homo sapiens, UniProt Q5BJF2); assay: Off-target primary and secondary screen; assay type: binding; conditions: 10 mM sample
Sigma 2, sequence (Q5BJF2 whole entry): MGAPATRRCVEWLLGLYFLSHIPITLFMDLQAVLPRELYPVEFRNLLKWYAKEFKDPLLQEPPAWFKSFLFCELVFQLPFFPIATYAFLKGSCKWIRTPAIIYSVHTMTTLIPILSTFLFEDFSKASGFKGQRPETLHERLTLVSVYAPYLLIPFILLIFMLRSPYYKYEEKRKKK

Aipha1D = Aipha1D (Homo sapiens, UniProt P25100); assay: Off-target primary and secondary screen; assay type: binding; conditions: 10 mM sample
Aipha1D, sequence (P25100 whole entry): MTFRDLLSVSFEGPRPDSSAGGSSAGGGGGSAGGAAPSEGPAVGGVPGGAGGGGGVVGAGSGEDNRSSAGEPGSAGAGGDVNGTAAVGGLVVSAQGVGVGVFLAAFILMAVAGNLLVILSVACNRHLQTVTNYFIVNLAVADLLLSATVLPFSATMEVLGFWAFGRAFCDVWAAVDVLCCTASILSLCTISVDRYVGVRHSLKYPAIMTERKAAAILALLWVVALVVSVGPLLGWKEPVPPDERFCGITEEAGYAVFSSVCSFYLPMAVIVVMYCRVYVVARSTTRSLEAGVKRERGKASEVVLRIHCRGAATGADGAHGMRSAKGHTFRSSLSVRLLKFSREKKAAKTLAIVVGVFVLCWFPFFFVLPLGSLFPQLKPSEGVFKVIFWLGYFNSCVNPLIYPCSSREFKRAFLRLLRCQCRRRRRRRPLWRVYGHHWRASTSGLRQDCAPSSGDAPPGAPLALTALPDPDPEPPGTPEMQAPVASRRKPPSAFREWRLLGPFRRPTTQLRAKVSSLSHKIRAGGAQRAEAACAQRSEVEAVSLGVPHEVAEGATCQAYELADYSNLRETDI

D5 = D5 (Homo sapiens, UniProt P21918); assay: Off-target primary and secondary screen; assay type: binding; conditions: 10 mM sample
Alpha2C = Alpha2C (Homo sapiens, UniProt P18825); assay: Off-target primary and secondary screen; assay type: binding; conditions: 10 mM sample
M3 = M3 (Homo sapiens, UniProt P20309); assay: Off-target primary and secondary screen; assay type: binding; conditions: 10 mM sample
D1 = D1 (Homo sapiens, UniProt P21728); assay: Off-target primary and secondary screen; assay type: binding; conditions: 10 mM sample
5-HT1A = 5-HT1A (Homo sapiens, UniProt P08908); assay: Off-target primary and secondary screen; assay type: binding; conditions: 10 mM sample
5-HT1A, sequence (P08908 whole entry, species assumed): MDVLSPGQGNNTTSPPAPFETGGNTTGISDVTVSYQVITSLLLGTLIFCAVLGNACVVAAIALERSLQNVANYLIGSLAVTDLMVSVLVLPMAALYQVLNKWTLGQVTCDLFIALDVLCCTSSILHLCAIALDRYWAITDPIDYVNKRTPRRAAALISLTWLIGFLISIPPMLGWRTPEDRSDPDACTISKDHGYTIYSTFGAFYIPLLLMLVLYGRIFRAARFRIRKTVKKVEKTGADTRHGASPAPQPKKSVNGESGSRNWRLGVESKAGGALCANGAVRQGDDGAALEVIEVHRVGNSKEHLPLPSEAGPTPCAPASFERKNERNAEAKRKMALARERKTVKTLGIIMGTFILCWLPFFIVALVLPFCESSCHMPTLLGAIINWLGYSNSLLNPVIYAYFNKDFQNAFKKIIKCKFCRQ

D3 = D3 (Homo sapiens, UniProt P35462); assay: Off-target primary and secondary screen; assay type: binding; conditions: 10 mM sample
5-HT2B = 5-HT2B (Homo sapiens, UniProt P41595); assay: Off-target primary and secondary screen; assay type: binding; conditions: 10 mM sample
Alpha2B = Alpha2B (Homo sapiens, UniProt P18089); assay: Off-target primary and secondary screen; assay type: binding; conditions: 10 mM sample
Alpha2B, sequence (P18089 whole entry): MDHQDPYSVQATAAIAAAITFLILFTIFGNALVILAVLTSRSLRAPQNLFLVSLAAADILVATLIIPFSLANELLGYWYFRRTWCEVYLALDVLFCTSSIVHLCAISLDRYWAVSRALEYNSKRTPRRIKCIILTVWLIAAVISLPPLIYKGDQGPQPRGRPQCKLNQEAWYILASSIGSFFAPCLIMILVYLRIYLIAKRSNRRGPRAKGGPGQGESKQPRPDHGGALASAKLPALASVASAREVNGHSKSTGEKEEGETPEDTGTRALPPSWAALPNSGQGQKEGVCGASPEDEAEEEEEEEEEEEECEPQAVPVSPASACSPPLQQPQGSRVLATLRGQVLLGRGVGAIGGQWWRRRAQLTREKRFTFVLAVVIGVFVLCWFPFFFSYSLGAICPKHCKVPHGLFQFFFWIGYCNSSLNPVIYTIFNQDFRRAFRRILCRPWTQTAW

PBR = PBR (Homo sapiens, UniProt P30536); assay: Off-target primary and secondary screen; assay type: binding
PBR, sequence (P30536 whole entry, species assumed): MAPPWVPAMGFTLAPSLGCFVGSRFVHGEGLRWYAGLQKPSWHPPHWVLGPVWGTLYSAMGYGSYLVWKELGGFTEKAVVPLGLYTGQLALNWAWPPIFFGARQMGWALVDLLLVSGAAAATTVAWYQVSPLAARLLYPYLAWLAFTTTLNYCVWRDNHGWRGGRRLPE

M2 = M2 (Homo sapiens, UniProt P08172); assay: Off-target primary and secondary screen; assay type: binding; conditions: 10 mM sample
M2, sequence (P08172 whole entry): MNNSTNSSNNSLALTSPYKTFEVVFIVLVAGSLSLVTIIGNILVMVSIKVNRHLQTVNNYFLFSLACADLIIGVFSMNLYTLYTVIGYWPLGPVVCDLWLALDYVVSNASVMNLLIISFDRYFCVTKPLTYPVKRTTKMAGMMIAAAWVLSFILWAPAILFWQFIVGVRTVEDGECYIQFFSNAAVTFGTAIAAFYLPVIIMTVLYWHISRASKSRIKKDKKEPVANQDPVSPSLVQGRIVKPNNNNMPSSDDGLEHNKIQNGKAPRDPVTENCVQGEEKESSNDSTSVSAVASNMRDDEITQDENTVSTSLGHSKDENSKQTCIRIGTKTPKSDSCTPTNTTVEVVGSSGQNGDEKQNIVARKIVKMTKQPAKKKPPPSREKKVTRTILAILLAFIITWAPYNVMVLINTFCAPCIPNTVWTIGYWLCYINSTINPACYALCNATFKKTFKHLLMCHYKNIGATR

H1 = H1 (Homo sapiens, UniProt P35367); assay: Off-target primary and secondary screen; assay type: binding; conditions: 10 mM sample
NET = NET (Homo sapiens, UniProt P23975); assay: Off-target primary and secondary screen; assay type: binding; conditions: 10 mM sample
NET, sequence (P23975 whole entry): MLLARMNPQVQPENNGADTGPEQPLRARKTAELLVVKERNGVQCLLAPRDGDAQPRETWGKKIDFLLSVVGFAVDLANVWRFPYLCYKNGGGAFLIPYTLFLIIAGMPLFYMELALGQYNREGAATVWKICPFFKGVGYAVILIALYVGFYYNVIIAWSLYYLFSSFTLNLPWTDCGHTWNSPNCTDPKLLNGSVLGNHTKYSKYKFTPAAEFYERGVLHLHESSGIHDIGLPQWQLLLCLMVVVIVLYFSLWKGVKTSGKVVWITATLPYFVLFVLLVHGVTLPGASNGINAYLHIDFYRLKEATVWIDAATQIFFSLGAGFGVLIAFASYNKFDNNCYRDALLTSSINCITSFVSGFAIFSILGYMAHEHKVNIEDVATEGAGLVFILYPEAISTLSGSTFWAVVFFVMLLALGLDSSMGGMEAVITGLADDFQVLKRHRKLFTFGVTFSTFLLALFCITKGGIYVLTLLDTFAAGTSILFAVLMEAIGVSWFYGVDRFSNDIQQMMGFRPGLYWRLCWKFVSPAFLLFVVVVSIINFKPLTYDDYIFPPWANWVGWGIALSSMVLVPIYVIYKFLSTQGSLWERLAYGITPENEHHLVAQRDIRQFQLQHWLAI

D2 = D2 (Homo sapiens, UniProt P14416); assay: Off-target primary and secondary screen; assay type: binding; conditions: 10 mM sample
D2, sequence (P14416 whole entry): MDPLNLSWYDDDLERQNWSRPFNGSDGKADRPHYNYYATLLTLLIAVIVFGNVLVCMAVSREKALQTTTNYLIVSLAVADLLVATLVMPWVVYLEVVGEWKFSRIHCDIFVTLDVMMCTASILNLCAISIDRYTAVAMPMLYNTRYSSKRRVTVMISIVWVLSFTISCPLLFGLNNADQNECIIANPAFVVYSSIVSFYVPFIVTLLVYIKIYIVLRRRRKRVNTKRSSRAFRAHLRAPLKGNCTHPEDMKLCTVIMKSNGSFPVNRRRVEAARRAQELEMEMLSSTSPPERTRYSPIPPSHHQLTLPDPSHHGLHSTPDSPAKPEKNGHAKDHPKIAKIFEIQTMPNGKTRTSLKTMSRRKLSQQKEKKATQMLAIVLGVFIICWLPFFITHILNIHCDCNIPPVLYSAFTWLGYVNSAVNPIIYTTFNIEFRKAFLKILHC

5-HT1E = 5-HT1E (Homo sapiens, UniProt P28566); assay: Off-target primary and secondary screen; assay type: binding; conditions: 10 mM sample
H2 = H2 (Homo sapiens, UniProt P25021); assay: Off-target primary and secondary screen; assay type: binding; conditions: 10 mM sample
H2, sequence (P25021 whole entry): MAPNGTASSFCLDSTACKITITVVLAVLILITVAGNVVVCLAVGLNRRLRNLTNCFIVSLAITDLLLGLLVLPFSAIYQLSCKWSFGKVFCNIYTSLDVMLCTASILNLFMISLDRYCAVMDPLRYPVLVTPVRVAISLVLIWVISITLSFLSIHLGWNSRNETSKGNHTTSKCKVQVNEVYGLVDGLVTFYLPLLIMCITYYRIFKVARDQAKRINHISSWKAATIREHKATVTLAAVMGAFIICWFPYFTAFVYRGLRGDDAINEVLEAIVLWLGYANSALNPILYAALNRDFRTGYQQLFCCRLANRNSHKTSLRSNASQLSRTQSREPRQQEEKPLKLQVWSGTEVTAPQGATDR

5-HT6 = 5-HT6 (Homo sapiens, UniProt P50406); assay: Off-target primary and secondary screen; assay type: binding; conditions: 10 mM sample
D4 = D4 (Homo sapiens, UniProt P21917); assay: Off-target primary and secondary screen; assay type: binding; conditions: 10 mM sample
SERT = SERT (Homo sapiens, UniProt P31645); assay: Off-target primary and secondary screen; assay type: binding; conditions: 10 mM sample
SERT, sequence (P31645 whole entry, species assumed): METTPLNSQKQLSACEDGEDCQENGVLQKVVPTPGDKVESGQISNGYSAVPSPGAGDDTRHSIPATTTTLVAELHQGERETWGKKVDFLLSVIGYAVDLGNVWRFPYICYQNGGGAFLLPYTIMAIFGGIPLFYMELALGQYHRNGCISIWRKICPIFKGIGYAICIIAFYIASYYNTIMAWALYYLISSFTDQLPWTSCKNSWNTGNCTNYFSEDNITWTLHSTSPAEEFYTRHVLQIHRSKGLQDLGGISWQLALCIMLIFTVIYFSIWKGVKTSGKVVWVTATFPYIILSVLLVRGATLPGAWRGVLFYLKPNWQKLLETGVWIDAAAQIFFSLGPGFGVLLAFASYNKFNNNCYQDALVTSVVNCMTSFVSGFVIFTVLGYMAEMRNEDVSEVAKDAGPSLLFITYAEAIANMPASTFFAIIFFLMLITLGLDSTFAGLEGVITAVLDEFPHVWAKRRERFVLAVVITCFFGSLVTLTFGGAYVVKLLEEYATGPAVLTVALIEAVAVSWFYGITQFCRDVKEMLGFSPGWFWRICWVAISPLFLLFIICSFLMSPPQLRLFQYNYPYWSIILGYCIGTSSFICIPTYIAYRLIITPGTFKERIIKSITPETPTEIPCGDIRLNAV

MOR = MOR (Homo sapiens, UniProt P35372); assay: Off-target primary and secondary screen; assay type: binding; conditions: 10 mM sample
Sigma 1 = Sigma 1 (Homo sapiens, UniProt Q99720); assay: Off-target primary and secondary screen; assay type: binding; conditions: 10 mM sample
Sigma 1, sequence (Q99720 whole entry): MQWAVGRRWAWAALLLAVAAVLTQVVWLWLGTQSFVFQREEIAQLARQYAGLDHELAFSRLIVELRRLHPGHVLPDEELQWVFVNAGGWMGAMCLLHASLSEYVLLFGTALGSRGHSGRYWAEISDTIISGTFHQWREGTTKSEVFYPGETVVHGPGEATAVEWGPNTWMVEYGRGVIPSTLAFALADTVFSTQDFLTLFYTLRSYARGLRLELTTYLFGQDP

H4 = H4 (Homo sapiens, UniProt Q9H3N8); assay: Off-target primary and secondary screen; assay type: binding; conditions: 10 mM sample
Alpha1A = Alpha1A (Homo sapiens, UniProt P35348); assay: Off-target primary and secondary screen; assay type: binding; conditions: 10 mM sample
Beta2 = Beta2 (Homo sapiens, UniProt P07550); assay: Off-target primary and secondary screen; assay type: binding; conditions: 10 mM sample
Beta2, sequence (P07550 whole entry): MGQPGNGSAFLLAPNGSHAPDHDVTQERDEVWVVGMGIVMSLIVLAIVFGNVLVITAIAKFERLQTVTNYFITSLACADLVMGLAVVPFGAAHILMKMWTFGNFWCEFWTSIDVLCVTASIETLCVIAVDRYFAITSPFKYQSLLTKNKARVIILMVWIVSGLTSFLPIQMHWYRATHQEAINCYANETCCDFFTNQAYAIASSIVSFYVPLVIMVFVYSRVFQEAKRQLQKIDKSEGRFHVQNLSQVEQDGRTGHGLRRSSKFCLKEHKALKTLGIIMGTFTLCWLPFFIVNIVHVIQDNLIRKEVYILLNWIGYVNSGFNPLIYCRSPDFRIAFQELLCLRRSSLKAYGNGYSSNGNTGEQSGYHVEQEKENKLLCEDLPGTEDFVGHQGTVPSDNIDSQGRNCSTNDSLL

BZP Rat brain site = assay: Off-target primary and secondary screen; assay type: binding
[3] = buffer 2 (1x PBS pH = 7.4), no GSH
[4] = buffer 3 (20 mM HEPES pH = 7.0), no GSH

## O=c1c2sc(Cl)cc2n2c(=S)[nH]nc2n1CC1CC1 [Compound 19, 7-Chloro-4-(cyclopropylmethyl)-1-thioxo-2,4-dihydrothieno[2,3-e][1,2,4]triazolo[4,3-a]pyrimidin-5 (1H)-one]
5-HT1D
  Primary screen AVE (% inhib) ± SD: 22.5 ± 25.6 % inhib
5-HT2A
  Primary screen AVE (% inhib) ± SD: 37.0 ± 10.4 % inhib
DAT
  Primary screen AVE (% inhib) ± SD: 43.9 ± 13.0 % inhib
[1]
  Cell efficacy (GI50) Mean ± SD: N.S.
5-HT7A
  Primary screen AVE (% inhib) ± SD: -88.1 ± 20.8 % inhib
5-HT1B
  Primary screen AVE (% inhib) ± SD: 17.7 ± 42.2 % inhib
[2]; buffer 1 + 5 mM GSH
  Compound detected: 95.4 µmol/L
  Compound detected, % of total: 95.4 % of total
  Compound detected, pk area: 1.38E+09
[2]; [3]
  Compound detected: 0.8 µmol/L
  Compound detected, % of total: 0.8 % of total
  Compound detected, pk area: 4.90E+06
[2]; buffer 2 + 5 mM GSH
  Compound detected: 77.9 µmol/L
  Compound detected, % of total: 77.9 % of total
  Compound detected, pk area: 5.81E+08
[2]; [4]
  Compound detected: 1.9 µmol/L
  Compound detected, % of total: 1.9 % of total
  Compound detected, pk area: 1.56E+06
[2]; buffer 3 + 5 mM GSN
  Compound detected: 66.9 µmol/L
  Compound detected, % of total: 66.9 % of total
  Compound detected, pk area: 1.89E+08
[2]; buffer 3 [sic], no GSH
  Compound detected: 1.3 µmol/L
  Compound detected, % of total: 1.3 % of total
  Compound detected, pk area: 9.61E+08
5-HT3
  Primary screen AVE (% inhib) ± SD: -3.8 ± 3.1 % inhib
Sigma 2
  Primary screen AVE (% inhib) ± SD: 40.6 ± 9.5 % inhib
Aipha1D
  Primary screen AVE (% inhib) ± SD: -9.9 ± 23.4 % inhib
D5
  Primary screen AVE (% inhib) ± SD: 28.7 ± 10.7 % inhib
Alpha2C
  Primary screen AVE (% inhib) ± SD: 10.6 ± 4.2 % inhib
M3
  Primary screen AVE (% inhib) ± SD: 7.5 ± 45.6 % inhib
D1
  Primary screen AVE (% inhib) ± SD: -17.2 ± 25.0 % inhib
5-HT1A
  Primary screen AVE (% inhib) ± SD: -20.0 ± 27.4 % inhib
D3
  Primary screen AVE (% inhib) ± SD: -7.0 ± 21.7 % inhib
5-HT2B
  Primary screen AVE (% inhib) ± SD: -17.7 ± 11.2 % inhib
Alpha2B
  Primary screen AVE (% inhib) ± SD: -6.4 ± 7.1 % inhib
PBR
  pKi: < 5.00
PBR; 10 mM sample
  Primary screen AVE (% inhib) ± SD: 5.3 ± 8.3 % inhib
M2
  Primary screen AVE (% inhib) ± SD: 21.1 ± 19.7 % inhib
H1
  Primary screen AVE (% inhib) ± SD: 11.5 ± 2.8 % inhib
NET
  Primary screen AVE (% inhib) ± SD: -39.3 ± 20.6 % inhib
D2
  Primary screen AVE (% inhib) ± SD: -27.4 ± 13.1 % inhib
5-HT1E
  Primary screen AVE (% inhib) ± SD: 31.3 ± 7.6 % inhib
H2
  Primary screen AVE (% inhib) ± SD: -27.4 ± 17.1 % inhib
5-HT6
  Primary screen AVE (% inhib) ± SD: -5.0 ± 11.7 % inhib
D4
  Primary screen AVE (% inhib) ± SD: -24.3 ± 4.4 % inhib
SERT
  Primary screen AVE (% inhib) ± SD: -28.9 ± 28.7 % inhib
MOR
  Primary screen AVE (% inhib) ± SD: 30.8 ± 47.5 % inhib
Sigma 1
  Primary screen AVE (% inhib) ± SD: 2.0 ± 21.4 % inhib
H4
  Primary screen AVE (% inhib) ± SD: -4.5 ± 11.4 % inhib
Alpha1A
  Primary screen AVE (% inhib) ± SD: -9.4 ± 18.0 % inhib
Beta2
  Primary screen AVE (% inhib) ± SD: -2.1 ± 19.7 % inhib
BZP Rat brain site
  pKi: < 5.00
BZP Rat brain site; 10 mM sample
  Primary screen AVE (% inhib) ± SD: 2.3 ± 21.8 % inhib
